{"source": "paper PMC10819888", "about": "“Benzimidazole-Based Derivatives as Apoptotic Antiproliferative Agents: Design, Synthesis, Docking, and Mechanistic Studies” (Molecules, 2024)", "key": {"HS 578T": {"system": "HS 578T", "experiment": "NCI-60 five-dose assay", "type": "cell-based, human", "conditions": "HS 578T, Breast Cancer"}, "HCT-15": {"system": "HCT-15", "experiment": "NCI-60 five-dose assay", "type": "cell-based, human", "conditions": "HCT-15, Colon Cancer"}, "SF-295": {"system": "SF-295", "experiment": "NCI-60 five-dose assay", "type": "cell-based, human", "conditions": "SF-295, CNS Cancer"}, "Melanoma subpanel": {"system": "Melanoma subpanel", "experiment": "NCI-60 five-dose assay, subpanel", "type": "cell-based, human", "conditions": "Melanoma"}, "SF-268": {"system": "SF-268", "experiment": "NCI-60 five-dose assay", "type": "cell-based, human", "conditions": "SF-268, CNS Cancer"}, "HCC-2998": {"system": "HCC-2998", "experiment": "NCI-60 five-dose assay", "type": "cell-based, human", "conditions": "HCC-2998, Colon Cancer"}, "SNB-75": {"system": "SNB-75", "experiment": "NCI-60 five-dose assay", "type": "cell-based, human", "conditions": "SNB-75, CNS Cancer"}, "NCI-H460": {"system": "NCI-H460", "experiment": "NCI-60 five-dose assay", "type": "cell-based, human", "conditions": "NCI-H460, Non-Small Cell Lung Cancer"}, "HL-60(TB)": {"system": "HL-60(TB)", "experiment": "NCI-60 five-dose assay", "type": "cell-based, human", "conditions": "HL-60(TB), Leukemia"}, "MDA-MB-435": {"system": "MDA-MB-435", "experiment": "NCI-60 five-dose assay", "type": "cell-based, human", "conditions": "MDA-MB-435, Melanoma"}, "UO-31": {"system": "UO-31", "experiment": "NCI-60 five-dose assay", "type": "cell-based, human", "conditions": "UO-31, Renal Cancer"}, "SN12C": {"system": "SN12C", "experiment": "NCI-60 five-dose assay", "type": "cell-based, human", "conditions": "SN12C, Renal Cancer"}, "SW-620": {"system": "SW-620", "experiment": "NCI-60 five-dose assay", "type": "cell-based, human", "conditions": "SW-620, Colon Cancer"}, "RPMI-8226": {"system": "RPMI-8226", "experiment": "NCI-60 five-dose assay", "type": "cell-based, human", "conditions": "RPMI-8226, Leukemia"}, "K-562": {"system": "K-562", "experiment": "NCI-60 five-dose assay", "type": "cell-based, human", "conditions": "K-562, Leukemia"}, "EGFR": {"molecular_target": "EGFR (Homo sapiens, UniProt P00533)", "sequence (P00533 669-1210)": "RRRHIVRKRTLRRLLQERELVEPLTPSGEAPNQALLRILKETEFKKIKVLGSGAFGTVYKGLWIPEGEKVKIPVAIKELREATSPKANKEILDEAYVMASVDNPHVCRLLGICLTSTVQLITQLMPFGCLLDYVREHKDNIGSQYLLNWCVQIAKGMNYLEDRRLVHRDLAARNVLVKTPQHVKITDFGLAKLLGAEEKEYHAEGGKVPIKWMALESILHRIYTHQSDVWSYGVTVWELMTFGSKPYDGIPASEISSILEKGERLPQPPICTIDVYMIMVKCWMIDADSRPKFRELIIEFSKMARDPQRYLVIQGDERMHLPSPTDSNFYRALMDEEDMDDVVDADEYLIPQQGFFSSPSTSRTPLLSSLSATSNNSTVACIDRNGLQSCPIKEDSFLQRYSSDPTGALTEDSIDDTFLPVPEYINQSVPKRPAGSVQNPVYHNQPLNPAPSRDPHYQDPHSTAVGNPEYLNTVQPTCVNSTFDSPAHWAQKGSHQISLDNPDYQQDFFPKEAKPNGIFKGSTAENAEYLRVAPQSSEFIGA", "experiment": "EGFR inhibitory assay"}, "NCI/ADR-RES": {"system": "NCI/ADR-RES", "experiment": "NCI-60 five-dose assay", "type": "cell-based, human", "conditions": "NCI/ADR-RES, Ovarian Cancer"}, "PC-3": {"system": "PC-3", "experiment": "NCI-60 five-dose assay", "type": "cell-based, human", "conditions": "PC-3, Prostate Cancer"}, "NCI-H23": {"system": "NCI-H23", "experiment": "NCI-60 five-dose assay", "type": "cell-based, human", "conditions": "NCI-H23, Non-Small Cell Lung Cancer"}, "SK-MEL-5": {"system": "SK-MEL-5", "experiment": "NCI-60 five-dose assay", "type": "cell-based, human", "conditions": "SK-MEL-5, Melanoma"}, "SK-MEL-2": {"system": "SK-MEL-2", "experiment": "NCI-60 five-dose assay", "type": "cell-based, human", "conditions": "SK-MEL-2, Melanoma"}, "HOP-92": {"system": "HOP-92", "experiment": "NCI-60 five-dose assay", "type": "cell-based, human", "conditions": "HOP-92, Non-Small Cell Lung Cancer"}, "OVCAR-5": {"system": "OVCAR-5", "experiment": "NCI-60 five-dose assay", "type": "cell-based, human", "conditions": "OVCAR-5, Ovarian Cancer"}, "SK-MEL-28": {"system": "SK-MEL-28", "experiment": "NCI-60 five-dose assay", "type": "cell-based, human", "conditions": "SK-MEL-28, Melanoma"}, "TK-10": {"system": "TK-10", "experiment": "NCI-60 five-dose assay", "type": "cell-based, human", "conditions": "TK-10, Renal Cancer"}, "[1]": {"conditions": "Homo sapiens, read-out: GI50 Conc. per Cell Line"}, "[2]": {"conditions": "Homo sapiens, read-out: LC50 (the source's name)"}}, "data": [{"smiles": "COc1ccc(C=NNC(=O)c2ccc3[nH]c(-c4ccc(Cl)cc4)nc3c2)cc1", "note": "[Compound 4g, N′-(4-Methoxybenzylidene)-2-(4-chlorophenyl)-1H-benzimidazole-5-carbohydrazide]", "values": [{"measurement": "TGI", "setting": "HS 578T", "result": 5.64, "unit": "µM"}, {"measurement": "GI50", "setting": "HS 578T; [1]", "result": 2300, "unit": "nM"}, {"measurement": "CC50", "setting": "HS 578T; [2]", "result": "> 100", "unit": "µM"}, {"measurement": "TGI", "setting": "HCT-15", "result": 12.80, "unit": "µM"}, {"measurement": "GI50", "setting": "HCT-15; [1]", "result": 3.24, "unit": "µM"}, {"measurement": "CC50", "setting": "HCT-15; [2]", "result": 82, "unit": "µM"}, {"measurement": "GI50", "setting": "SF-295; [1]", "result": 2230, "unit": "nM"}, {"measurement": "CC50", "setting": "SF-295; [2]", "result": 15, "unit": "µM"}, {"measurement": "TGI", "setting": "SF-295", "result": 5.05, "unit": "µM"}, {"measurement": "GI50", "setting": "Melanoma subpanel; Homo sapiens, average sensitivity of all subpanel cell lines, read-out: GI50 Subpanel MID b", "result": 2430, "unit": "nM"}, {"measurement": "GI50 Selectivity Ratio (MID a/MID b)", "setting": "Melanoma subpanel", "result": 1.04}, {"measurement": "GI50", "setting": "SF-268; [1]", "result": 2090, "unit": "nM"}, {"measurement": "CC50", "setting": "SF-268; [2]", "result": 20.8, "unit": "µM"}, {"measurement": "TGI", "setting": "SF-268", "result": 5.10, "unit": "µM"}, {"measurement": "TGI", "setting": "HCC-2998", "result": 6.44, "unit": "µM"}, {"measurement": "GI50", "setting": "HCC-2998; [1]", "result": 2570, "unit": "nM"}, {"measurement": "CC50", "setting": "HCC-2998; [2]", "result": 37.8, "unit": "µM"}, {"measurement": "GI50", "setting": "SNB-75; [1]", "result": 1530, "unit": "nM"}, {"measurement": "CC50", "setting": "SNB-75; [2]", "result": 25.7, "unit": "µM"}, {"measurement": "TGI", "setting": "SNB-75", "result": 4.57, "unit": "µM"}, {"measurement": "LC50", "setting": "NCI-H460; Homo sapiens", "result": 7.05, "unit": "µM"}, {"measurement": "GI50", "setting": "NCI-H460; [1]", "result": 1830, "unit": "nM"}, {"measurement": "TGI", "setting": "NCI-H460", "result": 3.59, "unit": "µM"}, {"measurement": "TGI", "setting": "HL-60(TB)", "result": ">100", "unit": "µM"}, {"measurement": "GI50", "setting": "HL-60(TB); [1]", "result": 1300, "unit": "nM"}, {"measurement": "CC50", "setting": "HL-60(TB); [2]", "result": "> 100", "unit": "µM"}, {"measurement": "GI50", "setting": "MDA-MB-435; [1]", "result": 3.11, "unit": "µM"}, {"measurement": "CC50", "setting": "MDA-MB-435; [2]", "result": 45.5, "unit": "µM"}, {"measurement": "TGI", "setting": "MDA-MB-435", "result": 9.84, "unit": "µM"}, {"measurement": "GI50", "setting": "UO-31; [1]", "result": 1860, "unit": "nM"}, {"measurement": "CC50", "setting": "UO-31; [2]", "result": 25.7, "unit": "µM"}, {"measurement": "TGI", "setting": "UO-31", "result": 6.38, "unit": "µM"}, {"measurement": "GI50", "setting": "SN12C; [1]", "result": 2460, "unit": "nM"}, {"measurement": "CC50", "setting": "SN12C; [2]", "result": 33.9, "unit": "µM"}, {"measurement": "TGI", "setting": "SN12C", "result": 6.79, "unit": "µM"}, {"measurement": "LC50", "setting": "SW-620; Homo sapiens", "result": 31, "unit": "µM"}, {"measurement": "GI50", "setting": "SW-620; [1]", "result": 2410, "unit": "nM"}, {"measurement": "TGI", "setting": "SW-620", "result": 5.58, "unit": "µM"}, {"measurement": "GI50", "setting": "RPMI-8226; [1]", "result": 997, "unit": "nM"}, {"measurement": "CC50", "setting": "RPMI-8226; [2]", "result": "> 100", "unit": "µM"}, {"measurement": "TGI", "setting": "RPMI-8226", "result": 4.77, "unit": "µM"}, {"measurement": "GI50", "setting": "K-562; Homo sapiens, K562, read-out: GI50 Conc. per Cell Line", "result": 2690, "unit": "nM"}, {"measurement": "CC50", "setting": "K-562; Homo sapiens, K562, read-out: LC50 (the source's name)", "result": "> 100", "unit": "µM"}, {"measurement": "TGI", "setting": "K-562", "result": 11.20, "unit": "µM"}, {"measurement": "IC50", "setting": "EGFR", "result": "270 ± 30", "unit": "nM"}, {"measurement": "GI50", "setting": "NCI/ADR-RES; [1]", "result": 7.81, "unit": "µM"}, {"measurement": "CC50", "setting": "NCI/ADR-RES; [2]", "result": "> 100", "unit": "µM"}, {"measurement": "TGI", "setting": "NCI/ADR-RES", "result": ">100", "unit": "µM"}, {"measurement": "LC50", "setting": "PC-3; Homo sapiens", "result": 8.55, "unit": "µM"}, {"measurement": "GI50", "setting": "PC-3; [1]", "result": 1650, "unit": "nM"}, {"measurement": "TGI", "setting": "PC-3", "result": 3.76, "unit": "µM"}, {"measurement": "GI50", "setting": "NCI-H23; [1]", "result": 2740, "unit": "nM"}, {"measurement": "CC50", "setting": "NCI-H23; [2]", "result": 75.9, "unit": "µM"}, {"measurement": "TGI", "setting": "NCI-H23", "result": 11.20, "unit": "µM"}, {"measurement": "GI50", "setting": "SK-MEL-5; [1]", "result": 1890, "unit": "nM"}, {"measurement": "CC50", "setting": "SK-MEL-5; [2]", "result": 7.95, "unit": "µM"}, {"measurement": "TGI", "setting": "SK-MEL-5", "result": 3.88, "unit": "µM"}, {"measurement": "LC50", "setting": "SK-MEL-2; Homo sapiens", "result": 69.7, "unit": "µM"}, {"measurement": "GI50", "setting": "SK-MEL-2; [1]", "result": 3.59, "unit": "µM"}, {"measurement": "TGI", "setting": "SK-MEL-2", "result": 13.80, "unit": "µM"}, {"measurement": "TGI", "setting": "HOP-92", "result": 4.11, "unit": "µM"}, {"measurement": "LC50 (50% lethal concentration)", "setting": "HOP-92; Homo sapiens", "result": 15.1, "unit": "µM"}, {"measurement": "GI50", "setting": "HOP-92; [1]", "result": 1520, "unit": "nM"}, {"measurement": "GI50", "setting": "OVCAR-5; [1]", "result": 2350, "unit": "nM"}, {"measurement": "CC50", "setting": "OVCAR-5; [2]", "result": 33.5, "unit": "µM"}, {"measurement": "TGI", "setting": "OVCAR-5", "result": 6.89, "unit": "µM"}, {"measurement": "GI50", "setting": "SK-MEL-28; [1]", "result": 1790, "unit": "nM"}, {"measurement": "CC50", "setting": "SK-MEL-28; [2]", "result": 6.35, "unit": "µM"}, {"measurement": "TGI", "setting": "SK-MEL-28", "result": 3.37, "unit": "µM"}, {"measurement": "GI50", "setting": "TK-10; [1]", "result": 2950, "unit": "nM"}, {"measurement": "CC50", "setting": "TK-10; [2]", "result": 56.7, "unit": "µM"}, {"measurement": "TGI", "setting": "TK-10", "result": 6.59, "unit": "µM"}]}]}
